# Test results taken from PMC5465257, “Evaluation of JNJ-54717793 a Novel Brain Penetrant Selective Orexin 1 Receptor Antagonist in Two Rat Models of Panic Attack Provocation” (Frontiers in Pharmacology, 2017).
# Where two headings read alike, the source gives them in different places.
# Columns and labels:
# [1] = target: T1, OX1R in rat brain (tenia tecta) (Rattus norvegicus, UniProt P56718); assay: Ex vivo OX1R receptor occupancy autoradiography in rat brain (tenia tecta), with plasma bioanalysis; details: 10 mg/kg subcutaneous; for receptor occupancy at 10 mg/kg: sc
# T1 construct: Twenty micron thick tissue sections at the level of the tenia tecta were prepared for autoradiography; from tissue; host or cells: brain sections (tenia tecta) of male Sprague-Dawley rats
# T1 sequence (P56718 1-416): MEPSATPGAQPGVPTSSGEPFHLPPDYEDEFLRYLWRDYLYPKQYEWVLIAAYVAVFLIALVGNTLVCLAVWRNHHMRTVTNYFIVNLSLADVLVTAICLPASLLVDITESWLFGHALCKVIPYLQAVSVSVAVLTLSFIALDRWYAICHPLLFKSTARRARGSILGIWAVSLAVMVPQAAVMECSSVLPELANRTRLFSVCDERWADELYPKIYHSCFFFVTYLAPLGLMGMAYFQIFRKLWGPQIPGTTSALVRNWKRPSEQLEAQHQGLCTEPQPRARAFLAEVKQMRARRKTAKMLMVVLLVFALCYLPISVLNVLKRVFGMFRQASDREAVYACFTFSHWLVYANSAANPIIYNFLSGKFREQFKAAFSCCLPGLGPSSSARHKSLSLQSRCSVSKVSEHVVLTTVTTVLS
# wild-type mice = assay: Sleep recording (EEG/EMG) in wild-type mice; type: in vivo, mouse
# Method: Sleep experiments were conducted in male Sprague-Dawley rats (350–450 g, Harlan Laboratories, Livermore, CA, United States) and in male C57Bl6 OX2R knockout (KO) and corresponding wild-type mice (30–35 g, Charles River Laboratories, San Diego, CA, United States) as described previously ([Dugovic et al., 2009]). Animals were chronically implanted with telemetric devices (Data Sciences International, St. Paul, MN, United States) for the recording of electroencephalogram (EEG) and electromyogram (EMG) signals. Polysomnographic waveforms were analyzed per 10-s epoch and classified as wake, non-rapid eye movement (NREM) or REM sleep by using the computer software program SleepSign (Kissei Comtec, Nagano, Japan). For each experiment, EEG and EMG signals were recorded for up to 6 h after administration of the tested compounds. Analysis of sleep parameters included latency to NREM sleep (defined as the time interval to the first six consecutive NREM epochs) and REM sleep (the first two consecutive REM epochs post-treatment), and the duration of NREM and REM.
# Results were averaged and expressed as mean ± SEM in defined time intervals. To determine whether differences were significant at a given interval, either paired Student’s t-test or two-way analysis of variance (ANOVA) (interaction time × treatment), repeated measures followed by Bonferroni post hoc test was performed.
# In the present study, the in vivo functional target engagement was investigated in a model of permanent inhibition of OX2R, and the effects of JNJ-5471773 on sleep-wake states were examined in mice lacking the OX2R relative to their corresponding wild-type mice. […] NREM sleep latency and duration were not affected in both genotypes (not shown).
# Sprague-Dawley rats = assay: Sodium lactate panic provocation model (1-allyglycine treated rats)
# Method: Experiments were performed in male Sprague-Dawley rats (300–350 g, Harlan Laboratory, Indianapolis, IN, United States). Prior to and during surgeries, rats were anesthetized with a nose cone connected to an isoflurane system (MGX Research Machine; Vetamic, Rossville, IN, United States). Radiotelemetry probes [Cat. no. HD-S11, Data Sciences International, St. Paul, MN, United States] were surgically implanted into the peritoneal cavity and sutured to the muscle wall in order to assess general motor activity. A pressure transducer was implanted into the femoral artery to assess cardiovascular responses [i.e., mean arterial blood pressure (MAP) and heart rate (HR)]. Rats were also fitted with femoral venous catheters for 0.5 M i.v. sodium lactate (NaLac) infusions, as previously described ([Shekhar et al., 1996]). After 3–5 days of recovery, rats were anesthetized and 26 gauge T-shaped cannulae (Cat. no. 3260PG, Plastics One, Inc., Roanoake, VA, United States) were directed at cardio-excitatory Perifornical hypothalamic area regions [([Shekhar and Keim, 1997]) bregma: 1.2 mm posterior, +2.1 mm lateral, +9.1 mm ventral and adjusted for approaching at a 10° angle toward the midline with the stereotaxic incisor bar elevated 5 mm above the interaural line] and cemented into place. The 22 gauge side arm was then attached, via PE-60 tubing, to an osmotic minipump (prefilled with 1-allyglycine solution chronically infused at 3.5 nmol/0.5 μl per hour) and sutured into place subcutaneously at the nape of the neck (DURECT Corporation, Model no. 2002).
# Five days following 1-allyglycine infusion onset, in a counterbalanced design and with 48 h between crossover, rats were orally dosed with either JNJ-54717793 at 3, 10, or 30 mg/kg, or vehicle as a control group 60 min prior to the 15 min 0.5 M sodium lactate challenge. […] The data reported are changes in mean arterial blood pressure, HR, and activity from the average of the baseline (t-5 to t-1) from each rat.
# Baseline SI testing was done 7–8 days following radiotelemetry surgery recovery, and repeated again 2–3 days later during drug treatment crossover. On experimental drug testing days, the SI test was performed 5 min after the offset of the sodium lactate challenge with different partners each time. The SI box dimension were 0.9 m long × 0.9 m wide × 0.3 m height. […] All behavioral tests were digitally videorecorded with a camera above the box. The “experimental” rat and an unfamiliar “partner” rat were both allowed to individually habituate to the box for a 5 min period 24 h prior to each SI test. During the SI test, the two rats were placed together in the center of the box, and the total duration (sec) of non-aggressive physical contact (grooming, sniffing, crawling over and under, etc.) initiated by the “experimental” rat is quantified over a 5 min duration. A baseline SI test was performed at least 72 h after i.v. catheterization, but prior to osmotic minipump implantation. Another SI test was performed 5 days following minipump infusions and immediately following saline or sodium lactate infusions. Video recorded sessions were scored at a later time by Stephanie D Fitz, whom was blind to any drug treatment.
# Each dependent variable for assessment of behavior and radiotelemetry data was respectively analyzed using a one way ANOVA, or a one way ANOVA with repeated measures with drug treatment as the main factor and time as repeated measures. In the presence of significant main effects post hoc tests were conducted using a parametric Fisher’s LSD test. Within subjects time effects were also assessed using a Dunnett’s one way analysis with the minute prior to the i.v infusion used as the control.
# [2] = rats, after sodium lactate challenge
compound,measurement,setting,value
"O=C(c1cccc(F)c1-c1ncccn1)N1[C@@H]2CC[C@H]1[C@H](Nc1cnc(C(F)(F)F)cn1)C2 [JNJ-54717793, (1S,2R,4R)-7-([(3-fluoro-2-pyrimidin-2-ylphenyl)carbonyl]-N-[5-(trifluoromethyl)pyrazin-2-yl]-7-azabicyclo[2.2.1]heptan-2-amine)]",plasma concentration for maximal receptor occupancy,[1],2211 ± 339 ng/mL
same,receptor occupancy at 10 mg/kg,"[1]; 2 h time point, read-out: OX1R occupancy",65%
same,receptor occupancy at 10 mg/kg,"[1]; observed at 30 min, read-out: maximal OX1R occupancy",83 ± 7%
same,REM sleep duration,wild-type mice; 30 mg/kg oral,did not alter
same,REM sleep latency,wild-type mice; 30 mg/kg oral,slightly reduced
same,NREM sleep latency and duration,wild-type mice; 30 mg/kg oral (not shown),not affected
same,sodium lactate-induced pressor response (MAP),"Sprague-Dawley rats; rats, 10 mg/kg p.o., t3 timepoint, no overall treatment effect",attenuation of pressor response
same,sodium lactate-induced tachycardia (HR),"Sprague-Dawley rats; rats, 3, 10, 30 mg/kg p.o., compared to vehicle",did not attenuate
same,locomotion,"Sprague-Dawley rats; rats, 3, 10, 30 mg/kg p.o., sodium lactate did not increase locomotion",did not significantly alter
same,center or middle times in the open field test,Sprague-Dawley rats; [2],Nor was there an effect
same,sedative effects (line crossings) in the open field test,Sprague-Dawley rats; [2],no apparent sedative effects
same,sodium lactate-induced anxiety behavior in the SI test,"Sprague-Dawley rats; rats, highest dose (30 mg/kg p.o.)",attenuate/block
